Experimental data published in BindingDB's records for doi:10.1038/nchembio.662 (University of California San Francisco, 2011).

These compounds were tested against D(3) dopamine receptor (Homo sapiens, UniProt P35462) (assay: Binding Assay). Settings: pH 7.4; 22 °C.
Procedure: (§1) Affinities for D3-dopaminergic, D2-dopaminergic and beta2-adrenergic receptors were determined by radioligand competition binding at the National Institute of Mental Health Psychoactive Drug Screening Program.

D(3) dopamine receptor, sequence (P35462 as listed by the source): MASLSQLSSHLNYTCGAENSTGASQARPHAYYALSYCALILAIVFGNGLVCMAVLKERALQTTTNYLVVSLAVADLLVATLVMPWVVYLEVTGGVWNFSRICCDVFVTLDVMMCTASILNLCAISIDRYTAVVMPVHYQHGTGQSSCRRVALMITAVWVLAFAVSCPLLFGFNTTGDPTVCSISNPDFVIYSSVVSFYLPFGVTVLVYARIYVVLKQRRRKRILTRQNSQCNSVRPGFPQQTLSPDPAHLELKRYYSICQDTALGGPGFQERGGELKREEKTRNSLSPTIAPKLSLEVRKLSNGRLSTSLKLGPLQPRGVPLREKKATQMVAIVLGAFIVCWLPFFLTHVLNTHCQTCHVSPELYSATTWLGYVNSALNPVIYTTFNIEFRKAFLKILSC

Row | SMILES | Ki [µM]
1 | CNCc1ccc(-c2cc(Cl)cc(Cl)c2)o1 [Azanium analog, 55] | 0.2
2 | O=c1oc2c(CN3CCCC3)c(O)ccc2c2c1CCC2 [ZINC 118327, 8] | > 10
3 | CC(C)(CO)NCc1ccc(-c2ccccc2)o1 [ZINC 529108, 67] | 9.58
4 | C[C@H](O)CNCc1ccc(-c2cccc(Cl)c2)o1 [ZINC 4842613, 71] | 0.488
5 | Clc1ccc(Cl)c(-c2ccc(CNC3CC3)o2)c1 [ZINC 4868730, 70] | 2.71
6 | CC(C)(C)NCc1ccc(-c2ccccc2)o1 [ZINC 4942833, 65] | 8.67
7 | CC(C)(CO)NCc1ccc(-c2ccc(F)c(Cl)c2)o1 [ZINC 4942963, 64] | 6.81
8 | Cc1ccc(-c2ccc(CNC(C)(C)CO)o2)cc1Cl [ZINC 4999756, 68] | 2.74
9 | CC(C)(C)NCc1ccc(-c2ccccc2Cl)o1 [ZINC 6743145, 66] | 5.46
10 | CC[C@@H](CO)NCc1ccc(-c2cccc(Cl)c2C)o1 [ZINC 7538899, 72] | 0.817
11 | CC(C)NCc1ccc(-c2ccccc2)o1 [ZINC 10436232, 69] | 8.89
12 | CCSc1nnc2n1CCCN2C(=O)CN1CCOCC1 [ZINC 17173082, 12] | 9.83
13 | O[C@@H](CN1CCC(Oc2cccc(F)c2)CC1)c1cccs1 [ZINC 19294224, 9] | 9.46
14 | CN(Cc1nc2ccccc2s1)C[C@H](O)Cc1ccccc1 [ZINC 27406499, 25] | > 10
15 | N#C/C(=C\c1ccco1)C(=O)N1CCN(CCc2ccccc2)CC1 [ZINC 29218552, 47] | 10
16 | c1ccc(Cn2cncn2)c(CNCc2ccc(-n3ccnc3)cc2)c1 [ZINC 30900826, 10] | 10
17 | CC1CCN(CCC(=O)N2c3ccccc3C[C@@H]2C)CC1 [ZINC 39217391, 11] | 9.28
18 | Cc1cccc2nc(C(=O)NCC(c3ccco3)N(C)C)cn12 (configuration not stated) [ZINC 41903371, 52] | 10
19 | C[C@H](C1CC1)N(CCC(=O)N1CCc2ccccc21)C1CC1 [ZINC 42123507, 27] | > 10
20 | c1ccc(-c2n[nH]cc2CNCc2ccc(Cn3ccnc3)cc2)cc1 [ZINC 42228310, 26] | 9.31
21 | Cc1cccc2nc(C(=O)NCC(C)N(C)C)cn12 (configuration not stated) [ZINC 46272073, 50] | 10
22 | CN(CCCOc1ccccc1)CC(=O)N1CCc2ccccc21 [ZINC 48057418, 45] | 7.21
23 | CN(C)[C@H](CNC(=O)c1cc([N+](=O)[O-])cc([N+](=O)[O-])c1)c1ccco1 [ZINC 49944321, 48] | 7.77
24 | CN(CCOc1cccc(F)c1)CC(O)c1c(F)cccc1F (configuration not stated) [ZINC 51423503, 49] | 8.74

These compounds were tested against D(2) dopamine receptor (Homo sapiens, UniProt P14416) (assay: Binding Assay). Settings: pH 7.4; 22 °C.
Procedure: as §1

D(2) dopamine receptor, sequence (P14416 whole entry): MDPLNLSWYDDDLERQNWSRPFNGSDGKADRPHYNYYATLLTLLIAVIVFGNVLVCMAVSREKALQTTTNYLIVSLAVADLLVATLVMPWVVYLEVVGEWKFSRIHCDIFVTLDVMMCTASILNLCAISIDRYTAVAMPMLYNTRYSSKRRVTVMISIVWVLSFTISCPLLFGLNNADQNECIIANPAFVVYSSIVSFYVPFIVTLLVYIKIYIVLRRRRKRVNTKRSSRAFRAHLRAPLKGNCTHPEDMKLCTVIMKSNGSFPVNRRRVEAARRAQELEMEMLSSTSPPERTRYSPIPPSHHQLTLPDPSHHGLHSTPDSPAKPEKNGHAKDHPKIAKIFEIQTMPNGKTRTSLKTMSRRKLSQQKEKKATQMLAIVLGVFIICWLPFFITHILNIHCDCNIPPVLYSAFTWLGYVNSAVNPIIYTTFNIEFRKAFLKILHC

Row | SMILES | Ki [µM]
25 | Clc1ccc(Cl)c(-c2ccc(CNC3CC3)o2)c1 [ZINC 4868730, 70] | 6.61
26 | CC(C)(C)NCc1ccc(-c2ccccc2)o1 [ZINC 4942833, 65] | 2.9
27 | CCSc1nnc2n1CCCN2C(=O)CN1CCOCC1 [ZINC 17173082, 12] | 6.35
